Patent publication US12240862B2, “Inhibitors of peptidylarginine deiminases” (Gilead Sciences, Inc., priority 2020, dated 2025)
pIC50: −log10 of the molar value.

Target: T1, human PAD4 (Homo sapiens, UniProt Q9UM07)
T1 construct: human PAD4 (NM_012387), A2P663, was PCR amplified; His-SUMO (N, cleaved yes); made in house; host or cells: E. coli BL21(DE3)
Experiment: In vitro PAD4 BAEE biochemical assay
Settings: human PAD4, BAEE substrate; 5 nM PAD4, 2 mM calcium chloride, 3 mM BAEE; geometric mean of multiple experiments
Summary of the method: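 Ammonia generated from BAEE serves as the readout, measured by o-phthalaldehyde after EDTA termination. Final conditions: 5 nM human PAD4 (SUMO tag cleaved), 2 mM CaCl2, 3 mM BAEE, pH 7.6 MOPS buffer, 25 °C for 2 h following a 30-min compound preincubation.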

T1 sequence (Q9UM07 2-663): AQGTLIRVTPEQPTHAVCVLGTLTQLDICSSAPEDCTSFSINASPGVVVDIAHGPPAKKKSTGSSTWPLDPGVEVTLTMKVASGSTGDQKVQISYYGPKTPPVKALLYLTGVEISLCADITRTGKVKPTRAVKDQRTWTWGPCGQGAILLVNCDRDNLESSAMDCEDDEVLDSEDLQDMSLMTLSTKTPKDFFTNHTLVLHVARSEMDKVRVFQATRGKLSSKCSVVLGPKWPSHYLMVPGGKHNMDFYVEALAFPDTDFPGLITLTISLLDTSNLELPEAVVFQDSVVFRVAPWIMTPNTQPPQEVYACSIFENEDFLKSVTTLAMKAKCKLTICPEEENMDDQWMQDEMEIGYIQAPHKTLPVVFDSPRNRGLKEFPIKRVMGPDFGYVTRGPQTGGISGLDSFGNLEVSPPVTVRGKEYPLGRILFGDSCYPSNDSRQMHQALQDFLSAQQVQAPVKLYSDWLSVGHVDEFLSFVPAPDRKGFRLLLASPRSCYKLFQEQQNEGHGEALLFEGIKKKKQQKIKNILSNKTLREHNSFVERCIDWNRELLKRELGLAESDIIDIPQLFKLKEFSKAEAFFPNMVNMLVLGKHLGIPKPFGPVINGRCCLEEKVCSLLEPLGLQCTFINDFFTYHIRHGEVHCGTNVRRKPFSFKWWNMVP

pIC50	Compound
6.80	CC[C@](C)(O)c1ccc2cc(-c3nc4cc(C(=O)N5[C@H]6CC[C@@H]5[C@H](N)C6)cc(OC)n4c3C)n(CC3CC3)c2n1 [Example 565, [(1~{R},2~{R},4~{S})-2-amino-7-azabicyclo [2.2.1]heptan-7-yl]-[2-[1-(cyclopropylmethyl)-6-[(2~{S})-2-hydroxybutan-2-yl]pyrrolo[2,3-b]pyridin-2-yl]-5-methoxy-3-methylimidazo[1,2-a]pyridin-7-yl]methanone]
6.91	CC[C@@](C)(O)c1ccc2cc(-c3nc4cc(C(=O)N5[C@H]6CC[C@@H]5[C@H](N)C6)cc(OC)n4c3C)n(CC3CC3)c2n1 [Example 566, [(1~{R},2~{R},4~{S})-2-amino-7-azabicyclo [2.2.1]heptan-7-yl]-[2-[1-(cyclopropylmethyl)-6-[(2~{R})-2-hydroxybutan-2-yl]pyrrolo[2,3-b]pyridin-2-yl]-5-methoxy-3-methylimidazo [1,2-a]pyridin-7-yl]methanone]
6.94	COc1cc(C(=O)N2[C@H]3CC[C@@H]2[C@H](N)C3)cc2nc(-c3cc4ccc(-c5cccnc5-c5cncs5)nc4n3CC3CC3)c(C)n12 [Example 567, [(1~{R},2~{R},4~{S})-2-amino-7-azabicyclo [2.2.1]heptan-7-yl]-[2-[1-(cyclopropylmethyl)-6-[2-(1,3-thiazol-5-yl)pyridin-3-yl]pyrrolo[2,3-b]pyridin-2-yl]-5-methoxy-3-methylimidazo[1,2-a]pyridin-7-yl]methanone]
6.88	COc1cc(C(=O)N2[C@H]3CC[C@@H]2[C@H](N)C3)cc2nc(-c3cc4ccc(C(C)C#N)nc4n3CC3CC3)c(C)n12 (stereo partly shown) [Example 568, 2-[2-[7-[(1~{R},2~{R}, 4~{S})-2-amino-7-azabicyclo[2.2.1]heptane-7-carbonyl]-5-methoxy-3-methylimidazo[1,2-a]pyridin-2-yl]-1-(cyclopropylmethyl)pyrrolo [2,3-b]pyridin-6-yl] propanenitrile]
6.84	COc1cc(C(=O)N2[C@H]3CC[C@@H]2[C@H](N)C3)cc2nc(-c3cc4ccc(C(O)C(F)(F)F)nc4n3CC3CC3)c(C)n12 (stereo partly shown) [Example 569, [(1~{R},2~{R},4~{S})-2-amino-7-azabicyclo [2.2.1]heptan-7-yl]-[2-[1-(cyclopropylmethyl)-6-(2,2,2-trifluoro-1-hydroxyethyl)pyrrolo [2,3-b]pyridin-2-yl]-5-methoxy-3-methylimidazo[1,2-a]pyridin-7-yl]methanone]
6.64	COc1cc(C(=O)N2[C@H]3CC[C@@H]2[C@H](N)C3)cc2nc(-c3cc4ccc(C(C)(C)N)nc4n3CC3CC3)c(C)n12 [Example 570, [(1~{R},2~{R},4~{S})-2-amino-7-azabicyclo [2.2.1]heptan-7-yl]-[2-[6-(2-aminopropan-2-yl)-1-(cyclopropylmethyl)pyrrolo [2,3-b]pyridin-2-yl]-5-methoxy-3-methylimidazo[1,2-a]pyridin-7-yl]methanone]
6.33	COc1cc(C(=O)N2[C@H]3CC[C@@H]2[C@H](N)C3)cc2nc(-c3cc4ccc(C(C)(O)C(C)C)nc4n3CC3CC3)c(C)n12 (stereo partly shown) [Example 571, [(1~{R},2~{R},4~{S})-2-amino-7-azabicyclo [2.2.1]heptan-7-yl]-[2-[1-(cyclopropylmethyl)-6-(2-hydroxy-3-methylbutan-2-yl)pyrrolo[2,3-b]pyridin-2-yl]-5-methoxy-3-methylimidazo[1,2-a]pyridin-7-yl]methanone]
6.00	COc1cc(C(=O)N2[C@H]3CC[C@@H]2[C@H](N)C3)cc2nc(-c3cc4ccc(C(C)(O)c5ccccc5)nc4n3CC3CC3)c(C)n12 (stereo partly shown) [Example 573, [(1~{R},2~{R},4~{S})-2-amino-7-azabicyclo [2.2.1]heptan-7-yl]-[2-[1-(cyclopropylmethyl)-6-(1-hydroxy-1-phenylethyl)pyrrolo[2,3-b]pyridin-2-yl]-5-methoxy-3-methylimidazo[1,2-a]pyridin-7-yl]methanone]
6.96	COc1cc(C(=O)N2[C@H]3CC[C@@H]2[C@H](N)C3)cc2nc(-c3cc4ccc(C(C)(C)O)nc4n3CC3CC3)c(C)n12 [Example 574, [(1~{R},2~{R},4~{S})-2-amino-7-azabicyclo [2.2.1]heptan-7-yl]-[2-[1-(cyclopropylmethyl)-6-(2-hydroxypropan-2-yl)pyrrolo [2,3-b]pyridin-2-yl]-5-methoxy-3-methylimidazo[1,2-a]pyridin-7-yl]methanone]
6.89	COc1cc(C(=O)N2[C@H]3CC[C@@H]2[C@H](N)C3)cc2nc(-c3cc4ccc(-c5cccnc5C)nc4n3CC3CC3)c(C)n12 [Example 575, ((1R,2R,4S)-2-amino-7-azabicyclo[2.2.1]heptan-7-yl)(2-(1-(cyclopropylmethyl)-6-(2-methylpyridin-3-yl)-1H-pyrrolo[2,3-b]pyridin-2-yl)-5-methoxy-3-methylimidazo[1,2-a]pyridin-7-yl)methanone]
5.67	CCc1ccc2cc(-c3nc4cc(C(=O)N5CCC[C@@H](N)C5)cc(OC)n4c3C3CCC3)n(CC3CC3)c2n1 [Example 576, [(3~{R})-3-aminopiperidin-1-yl]-[3-cyclobutyl-2-[1-(cyclopropylmethyl)-6-ethylpyrrolo[2,3-b]pyridin-2-yl]-5-methoxyimidazo [1,2-a]pyridin-7-yl]methanone]
6.00	CCc1ccc2cc(-c3nc4cc(C(=O)N5[C@H]6CC[C@@H]5[C@H](N)C6)cc(OC)n4c3C3CCC3)n(CC3CC3)c2n1 [Example 577, [(1~{R},2~{R},4~{S})-2-amino-7-azabicyclo [2.2.1]heptan-7-yl]-[3-cyclobutyl-2-[1-(cyclopropylmethyl)-6-ethylpyrrolo[2,3-b]pyridin-2-yl]-5-methoxyimidazo [1,2-a]pyridin-7-yl]methanone]
6.46	CCc1ccc2cc(-c3nc4cc(C(=O)N5[C@H]6CC[C@@H]5[C@H](N)C6)cc(OC)n4c3C3CC3)n(CC3CC3)c2n1 [Example 578, [(1~{R},2~{R},4~{S})-2-amino-7-azabicyclo [2.2.1]heptan-7-yl]-[3-cyclopropyl-2-[1-(cyclopropylmethyl)-6-ethylpyrrolo[2,3-b]pyridin-2-yl]-5-methoxyimidazo [1,2-a]pyridin-7-yl]methanone]
6.39	CCc1ccc2cc(-c3nc4cc(C(=O)N5CC[C@@H](OC)[C@@H](N)C5)cc(OC)n4c3C)n(CC3CC3)c2n1 [Example 579, [(3~{S},4~{R})-3-amino-4-methoxypiperidin-1-yl]-[2-[1-(cyclopropylmethyl)-6-ethylpyrrolo[2,3-b]pyridin-2-yl]-5-methoxy-3-methylimidazo[1,2-a]pyridin-7-yl]methanone]
4.64	CCc1ccc2cc(-c3nc4cc(C(=O)N5CCCC(NCCO)C5)cc(OC)n4c3C)n(CC3CC3)c2n1 (stereo not shown) [Example 581, [2-[1-(cyclopropylmethyl)-6-ethylpyrrolo[2,3-b]pyridin-2-yl]-5-methoxy-3-methylimidazo[1,2-a]pyridin-7-yl]-[3-(2-hydroxyethylamino)piperidin-1-yl]methanone]
6.27	CCc1ccc2cc(-c3nc4cc(C(=O)N5CCC6CCNC6C5)cc(OC)n4c3C)n(CC3CC3)c2n1 (stereo not shown) [Example 583, 1,2,3,3~{a},4,5,7,7~{a}-octahydropyrrolo[2,3-c] pyridin-6-yl-[2-[1-(cyclopropylmethyl)-6-ethylpyrrolo[2,3-b]pyridin-2-yl]-5-methoxy-3-methylimidazo[1,2-a]pyridin-7-yl]methanone]
7.07	CCc1ccc2cc(-c3nc4cc(C(=O)N5[C@H]6CC[C@@H]5[C@H](N)C6)cc(OC)n4c3C)n(CC3CC3)c2n1 [Example 584, [(1~{R},2~{R},4~{S})-2-amino-7-azabicyclo [2.2.1]heptan-7-yl]-[2-[1-(cyclopropylmethyl)-6-ethylpyrrolo[2,3-b]pyridin-2-yl]-5-methoxy-3-methylimidazo[1,2-a]pyridin-7-yl]methanone]
6.76	CCc1ccc2cc(-c3nc4cc(C(=O)N5CCC[C@@H](N)C5)cc(OC)n4c3C3CC3)n(CC3CC3)c2n1 [Example 585, [(3~{R})-3-aminopiperidin-1-yl]-[3-cyclopropyl-2-[1-(cyclopropylmethyl)-6-ethylpyrrolo[2,3-b]pyridin-2-yl]-5-methoxyimidazo [1,2-a]pyridin-7-yl]methanone]
5.49	CCc1ccc2cc(-c3nc4cc(C(=O)N5CCC[C@@H](N)C5)cc(OC)n4c3C)n(CC3CC3)c2c1F [Example 586, [(3~{R})-3-aminopiperidin-1-yl]-[2-[1-(cyclopropylmethyl)-6-ethyl-7-fluoroindol-2-yl]-5-methoxy-3-methylimidazo [1,2-a]pyridin-7-yl]methanone]
5.35	CCc1ccc2cc(-c3nc4cc(C(=O)N5C[C@]6(N)CC[C@H]5C6)cc(OC)n4c3C)n(CC3CC3)c2n1 [Example 587, [(1~{S},4~{S})-4-amino-2-azabicyclo[2.2.1]heptan-2-yl]-[2-[1-(cyclopropylmethyl)-6-ethylpyrrolo[2,3-b]pyridin-2-yl]-5-methoxy-3-methylimidazo[1,2-a]pyridin-7-yl]methanone]
4.97	CCc1ccc2cc(-c3nc4cc(C(=O)N5C[C@@]6(N)CC[C@@H]5C6)cc(OC)n4c3C)n(CC3CC3)c2n1 [Example 588, [(1~{R},4~{R})-4-amino-2-azabicyclo[2.2.1]heptan-2-yl]-[2-[1-(cyclopropylmethyl)-6-ethylpyrrolo[2,3-b]pyridin-2-yl]-5-methoxy-3-methylimidazo[1,2-a]pyridin-7-yl]methanone]

Compound	pIC50
CCC(C)(O)c1ccc2cc(-c3nc4cc(C(=O)N5[C@H]6CC[C@@H]5[C@H](N)C6)cc(OC)n4c3C)n(CC3CC3)c2n1 (stereo partly shown) [Example 572, [(1~{R},2~{R},4~{S})-2-amino-7-azabicyclo [2.2.1]heptan-7-yl]-[2-[1-(cyclopropylmethyl)-6-(2-hydroxybutan-2-yl)pyrrolo [2,3-b]pyridin-2-yl]-5-methoxy-3-methylimidazo[1,2-a]pyridin-7-yl]methanone]	6.82
